This note sets out measurements from patent US20240041042A1, “1-(PYRIDYL)-5-AZINYLPYRAZOLE DERIVATIVES, AND THEIR USE FOR CONTROL OF UNDESIRED PLANT GROWTH” (Bayer Aktiengesellschaft, priority 2020, published 2024).

Where two headings read alike, the source gives them in different places.

Format in all cases: in vivo
In data set [1] the test system is Alopecurus myosuroides (ALOMY). Kind of data set: Pre-emergence herbicidal action against ALOMY. To be noted: 320 g/ha; scored visually after about 3 weeks; 100% = plants have died. The method, boiled down:
(§1)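 Herbicide applied to soil before seedling emergence, at 600 l/ha spray volume with 0.5% additive and rates up to 320 g/ha. Evaluation: visual percentage effect, about 3 weeks later, greenhouse-grown pots compared with untreated ones.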

The test system of the next data set is Glycine max (GLXMA). Particulars: pre-emergence, 80 g/ha, crop plant compatibility, in comparison to untreated controls. In outline:
(§2)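 Scoring: visual, % of untreated control, about 3 weeks after a pre-emergence application to the soil surface. Application used WP or EC formulations diluted in water with 0.5% additive at 600 l/ha; dosage levels are marked by suffixes a, b and c.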

For data set [2], the system named is Viola tricolor (VIOTR). Kind of data set: Post-emergence herbicidal action against VIOTR. In outline:
(§3)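 Post-emergence greenhouse spray, one-leaf stage, 600 l/ha water plus 0.5% additive; WP or EC formulations; application rates 320 g/ha or lower. Visual % damage vs untreated controls at ~3 weeks.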

Data set [3] has as its system Alopecurus myosuroides (ALOMY). The data set can be described thus: Post-emergence herbicidal action against ALOMY. To be noted: 320 g/ha, visual rating about 3 weeks after treatment vs untreated controls (100% = plants have died, 0% = like control plants). The method, boiled down:
as §3

Data set [4] has as its system Avena fatua (AVEFA). The data set can be described thus: Post-emergence herbicidal action against AVEFA. To be noted: visual rating about 3 weeks after treatment. In outline:
as §3

Data set [5] relates to Amaranthus retroflexus (AMARE). The data set can be described thus: Post-emergence herbicidal action against AMARE. Particulars: 320 g/ha, visual rating about 3 weeks after treatment. The method, boiled down:
as §3

The subject of data set [6] is Verconica persica (VERPE). Kind of data set: Post-emergence herbicidal action against VERPE. In outline: as §3
Data set [7] has as its system Digitaria sanguinalis (DIGSA). Kind of data set: Post-emergence herbicidal action against DIGSA. Particulars: 320 g/ha, visual rating about 3 weeks after treatment. In outline:
as §3

Data set [8] concerns Polygonum convolvulus (POLCO). Kind of data set: Post-emergence herbicidal action against POLCO. To be noted: dosage 320 g/ha. In outline:
as §3

Data set [9] has as its system Pharbitis purpurea (PHBPU). Kind of data set: Post-emergence herbicidal action against PHBPU. To be noted: dosage 320 g/ha. In outline: as §3
In data set [10] the test system is Setaria viridis (SETVI). Kind of data set: Post-emergence herbicidal action against SETVI. The method, boiled down: as §3
Data set [11] deals with Matricaria inodora (MATIN). Kind of data set: Post-emergence herbicidal action against MATIN. Particulars: dosage 320 g/ha. The method, boiled down: as §3
Data set [12] concerns Lolium rigidum (LOLRI). The data set can be described thus: Pre-emergence herbicidal action against LOLRI. The method, boiled down: as §1
For data set [13], the system named is Oryza sativa (ORYSA). Particulars: crop plant compatibility, effect in comparison to untreated controls. The method, boiled down: (§4)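 Visual rating (% effect vs. untreated plants; 100% = plant death) made about 3 weeks after treatment. Plants had been sprayed at one-leaf stage, 2–3 weeks post-sowing, with aqueous WP/EC preparations containing 0.5% additive, 600 l/ha water volume; a, b, c mark dose levels.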

The test system of data set [14] is Echinochloa crus-galli (ECHCG). Kind of data set: Pre-emergence herbicidal action against ECHCG. The method, boiled down:
as §1

The test system of data set [15] is Echinochloa crus-galli (ECHCG). Kind of data set: Post-emergence herbicidal action against ECHCG. The method, boiled down:
as §3

In data set [16] the test system is Lolium rigidum (LOLRI). The data set can be described thus: Post-emergence herbicidal action against LOLRI. The method, boiled down: as §3
Data set [17] relates to Setaria viridis (SETVI). Kind of data set: Pre-emergence herbicidal action against SETVI. The method, boiled down: as §1
For data set [18], the system named is Viola tricolor (VIOTR). Kind of data set: Pre-emergence herbicidal action against VIOTR. The method, boiled down:
as §1

Data set [19] deals with Digitaria sanguinalis (DIGSA). Kind of data set: Pre-emergence herbicidal action against DIGSA. In outline: as §1
The test system of data set [20] is Avena fatua (AVEFA). Kind of data set: Pre-emergence herbicidal action against AVEFA. To be noted: 320 g/ha, visual scoring after about 3 weeks vs untreated controls. In outline:
as §1

The subject of data set [21] is Verconica persica (VERPE). The data set can be described thus: Pre-emergence herbicidal action against VERPE. Particulars: dosage 320 g/ha. The method, boiled down:
as §1

For data set [22], the system named is Matricaria inodora (MATIN). The data set can be described thus: Pre-emergence herbicidal action against MATIN. Particulars: dosage 320 g/ha. In outline: as §1
Data set [23] has as its system Amaranthus retroflexus (AMARE). The data set can be described thus: Pre-emergence herbicidal action against AMARE. Particulars: 320 g/ha, visual scoring after about 3 weeks vs untreated controls. The method, boiled down: as §1
Data set [24] relates to Zea mays (ZEAMX). To be noted: pre-emergence, 80 g/ha, crop plant compatibility, in comparison to untreated controls. In outline: as §2
The test system of data set [25] is Oryza sativa (ORYSA). Particulars: pre-emergence, crop plant compatibility, in comparison to untreated controls. In outline:
as §2

Data set [26] has as its system Zea mays (ZEAMX). To be noted: crop plant compatibility, effect vs untreated controls. In outline: as §4
Data set [27] concerns Triticum aestivum (TRZAS). Particulars: crop plant compatibility, 80 g/ha, effect vs untreated controls. In outline:
as §4

Data set [28] relates to Polygonum convolvulus (POLCO). The data set can be described thus: Pre-emergence herbicidal action against POLCO. To be noted: dosage 320 g/ha. In outline:
as §1

As to `COC(=O)[C@@H](C)Oc1nn(-c2nc(F)ccc2F)c(-c2ccc(F)nc2)c1C1CC1` [Example I-298], the “Pre-emergence action against ALOMY” value in [1] was determined as 90%. Besides, in the data set with Glycine max (GLXMA), the “Pre-emergence action against GLXMA in %” value is 20%. The entries for the “Post-emergence action against VIOTR in %” value with Viola tricolor (VIOTR) [2] (80 g/ha) and with Viola tricolor (VIOTR) [2] (320 g/ha) were 80% and 90%, respectively. In data set [3], the “Post-emergence action against ALOMY in %” value worked out at 90%. Moreover, the “Post-emergence action against AVEFA in %” value is on record as 80% in the data set with Avena fatua (AVEFA) [4] (80 g/ha) and 90% with Avena fatua (AVEFA) [4] (320 g/ha). Also, the “Post-emergence action against AMARE in %” value in data set [5] was found to be 80%. Moreover, the “Post-emergence action against VERPE in %” value came out at 80% in data set [6] (320 g/ha, VERPE) and 80% in data set [6] (dosage 80 g/ha). Further, the “Post-emergence action against DIGSA in %” value in data set [7] is on record as 80%. In addition, in data set [8], the “Post-emergence action against POLCO in %” value amounted to 80%. Further, the “Post-emergence action against PHBPU in %” value in data set [9] was 90%. Also, the “Post-emergence action against SETVI in %” value with Setaria viridis (SETVI) [10] (dosage 80 g/ha) and with Setaria viridis (SETVI) [10] (dosage 320 g/ha) was 90% in each case. Besides, the “Post-emergence action against MATIN in %” value in data set [11] was 80%. For the same molecule, the “Pre-emergence action against LOLRI in %” value with Lolium rigidum (LOLRI) [12] (dosage 80 g/ha) was 90%; in the data set with Lolium rigidum (LOLRI) [12] (dosage 320 g/ha), 100%. For the same molecule, the “Post-emergence action against ORYSA in %” value with Oryza sativa (ORYSA) [13] (80 g/ha) is 20%. Further, the “Pre-emergence action against ECHCG in %” value came out at 90% in data set [14] (dosage 80 g/ha) and 100% in data set [14] (dosage 320 g/ha). Also, the “Post-emergence action against ECHCG in %” value in [15] (dosage 80 g/ha) is recorded as 80%; in data set [15] (dosage 320 g/ha) it was 90%. Further, the “Post-emergence action against LOLRI in %” value in the data set on Lolium rigidum (LOLRI) [16] (dosage 80 g/ha) and in the data set with Lolium rigidum (LOLRI) [16] (dosage 320 g/ha) was 90% in each case. Moreover, the “Pre-emergence action against SETVI in %” value in the data set on Setaria viridis (SETVI) [17] (dosage 80 g/ha) and with Setaria viridis (SETVI) [17] (dosage 320 g/ha) was 100% each time. The “Pre-emergence action against VIOTR in %” value in the data set on Viola tricolor (VIOTR) [18] (320 g/ha, Viola tricolor) is recorded as 100%; with Viola tricolor (VIOTR) [18] (dosage 80 g/ha) it was 100%. The “Pre-emergence action against DIGSA in %” value was determined as 100% in [19] (80 g/ha, visual scoring after about 3 weeks vs untreated controls) and 100% in [19] (dosage 320 g/ha). In addition, the “Pre-emergence action against AVEFA in %” value in the data set with Avena fatua (AVEFA) [20] turned out to be 90%. Further, in data set [21], the “Pre-emergence action against VERPE in %” value stood at 100%. Also, in data set [22], the “Pre-emergence action against MATIN in %” value was found to be 90%. In [23], the “Pre-emergence action against AMARE in %” value stood at 100%.
As for `C[C@H](NC(=O)COc1nn(-c2ccnc(F)c2)c(-c2ccc(F)nc2)c1Br)C(=O)O` [III-25], in the data set with Zea mays (ZEAMX) [24], the “Pre-emergence action against ZEAMX in %” value is listed as 20%. Besides, the “Pre-emergence action against ORYSA in %” value in the data set on Oryza sativa (ORYSA) [25] (80 g/ha) and with Oryza sativa (ORYSA) [25] (320 g/ha) was 0% throughout. Also, the “Pre-emergence action against GLXMA in %” value with Glycine max (GLXMA) was determined as 0%. In addition, the “Post-emergence action against AMARE in %” value in [5] is listed as 80%. Also, the “Post-emergence action against ZEAMX in %” value in the data set with Zea mays (ZEAMX) [26] (80 g/ha) and in the data set on Zea mays (ZEAMX) [26] (320 g/ha) was 0% in each case. The “Post-emergence action against ORYSA in %” value with Oryza sativa (ORYSA) [13] (80 g/ha) and with Oryza sativa (ORYSA) [13] (320 g/ha) was 0% in each case. In data set [27], the “Post-emergence action against TRZAS in %” value came to 0%. The “Pre-emergence action against AMARE in %” value in data set [23] was found to be 80%.
As to `C[C@@H](Oc1nn(-c2ccccn2)c(-c2ccc(Cl)nc2)c1Cl)C(=O)O` [Example I-238], the “Pre-emergence action against ALOMY” value in data set [1] stood at 90%. In the data set on Glycine max (GLXMA), the “Pre-emergence action against GLXMA in %” value was 20%. The “Post-emergence action against VIOTR in %” value in the data set with Viola tricolor (VIOTR) [2] (320 g/ha) is listed as 80%. In addition, in [3], the “Post-emergence action against ALOMY in %” value was 80%. Besides, the “Post-emergence action against AMARE in %” value in [5] is given as 80%. Also, the “Post-emergence action against POLCO in %” value in [8] amounted to 80%. Further, the “Post-emergence action against PHBPU in %” value in [9] worked out at 80%. In addition, the “Pre-emergence action against LOLRI in %” value in the data set on Lolium rigidum (LOLRI) [12] (dosage 320 g/ha) is given as 90%. The “Post-emergence action against ZEAMX in %” value in the data set on Zea mays (ZEAMX) [26] (80 g/ha) is 10%. The “Post-emergence action against ORYSA in %” value in the data set with Oryza sativa (ORYSA) [13] (80 g/ha) is 0%; in the data set with Oryza sativa (ORYSA) [13] (320 g/ha) it was 10%. For the same molecule, in data set [28], the “Pre-emergence action against POLCO in %” value is given as 80%. In [15] (dosage 320 g/ha), the “Post-emergence action against ECHCG in %” value is listed as 80%. Also, the “Post-emergence action against LOLRI in %” value in the data set on Lolium rigidum (LOLRI) [16] (dosage 320 g/ha) is 80%. Besides, the “Pre-emergence action against VIOTR in %” value in the data set with Viola tricolor (VIOTR) [18] (320 g/ha, Viola tricolor) is listed as 90%. Also, the “Pre-emergence action against DIGSA in %” value in data set [19] (dosage 320 g/ha) is on record as 90%. Moreover, the “Pre-emergence action against AMARE in %” value in [23] was 80%.
